Data set [1] has as its system common mosquitoes (Culex pipiens pallens). Kind of data set: Biological test 7: oil solution sprayed in glass chamber, knock-down. It counts as in vivo. The conditions noted are these: 0.7 ml of 0.1 % oil solution sprayed, 0.34 m^3 chamber, after 15 minutes. Here is the method:
Ten female common mosquitoes (Culex pipiens pallens) were left in a glass chamber (70 cm × 70 cm × 70 cm : 0.34 m^3). 0.7 ml of 0.1 % oil solution prepared for each of the present compounds according to the formulation example 7 was sprayed with a spray gun at 0.8 atmospheric pressure. After 15 minutes, the rate of knocked-down mosquitoes was examined.

Data set [2] concerns tobacco cutworm (Spodoptera litura). Put plainly: Biological test 1: artificial bait impregnated with emulsion. To be noted: Spodoptera litura, in Nicotiana tabacum, 144 h.
The test system of data set [3] is southern corn rootworm (Diabrotica undecimpunctata howardi). Kind of data set: Biological test 3: treated filter paper with eggs and sprouting corn. The conditions noted are these: Diabrotica undecimpunctata, in Zea mays, 192 h, read-out: mortality of the hatched larvae and eggs.
The test system of data set [4] is webbing clothes moth (Tineola bisselliella). Kind of data set: Biological test 13: volatile agent hung in cup with webbing clothes moth larvae. The format is in vivo. To be noted: volatile agent (100 µg on filter paper), 25 °C for 1 week. The protocol:
A wool muslin fabric (2 cm × 2 cm in size) was placed on the bottom of a polyethylene cup (bottom diameter : 10 cm, opening part diameter : 12.5 cm, height : 9.5 cm, volume : 950 cm^3 ). Ten middle instar larvae of webbing clothes moth (Tineola bisselliella) were put in the cup and each of the volatile agents prepared according to the formulation example 14 was hung from the cap in the interior of the cup. After standing at 25 °C for 1 week, the cup was opened, and the mortality and the degree of damage of the wool muslin fabric by the moths were examined (two replicate).

Data set [5] concerns common mosquitoes (Culex pipiens pallens). Put plainly: Biological test 6: mosquito larvae in treated water. The format is in vivo. To be noted: Culex pipiens, 24 h; 3.5 ppm active ingredient in water, last-instar larvae, after one day. Here is the method: 0.7 ml of aqueous emulsion, obtained by diluting emulsifiable concentrate prepared for each of the present compounds according to the formulation example 1 was added to 100 ml of ion-exchanged water (concentration of active ingredient : 3.5 ppm). Twenty last-instar larvae of common mosquitoes (Culex pipiens pallens) were left in the water. After one day, the mortality of the common mosquitoes was examined.

The test system of data set [6] is rats. The conditions noted are these: male 7-week old rats, into the stomach in corn oil, after 7 days. Here is the method:
After subjecting the rats to a twenty-hour fasting, 0.1 ml of the diluted solution per 10g weight was forcibly applied into the stomach of four male 7-week old rats. The rats were given food and water four hours after the application and thereafter regularly fed and watered, and kept in a cage. After 7 days, the mortality was examined for the rats and LD50 was calculated.

Data set [7] concerns brown planthopper (Nilaparvata lugens). Put plainly: Biological test 2: rice plant stalk dipped in emulsion. It counts as in vivo. To be noted: Nilaparvata lugens, 144 h; 500 ppm aqueous emulsion, larvae, after 6 days. The protocol: A stalk of a rice plant was dipped for one minute in a 500 ppm aqueous emulsion obtained by diluting each emulsifiable concentrate of the present compounds prepared according to the formulation example 1. The rice plant stalk was air-dried and placed in a polyethylene cup (diameter : 5.5 cm) where filter paper (diameter : 5.5 cm) impregnated with 1 ml of water was put. Approximately 30 larvae of brown planthopper (Nilaparvata lugens) were put in the polyethylene cup. After 6 days, the mortality of the larvae was examined.

The subject of data set [8] is webbing clothes moth (Tineola bisselliella). Put plainly: Biological test 12: topical application to webbing clothes moth larvae. It counts as in vivo. The conditions noted are these: 3 µg / insect, after 7 days. The protocol: Each of the present compounds diluted with acetone to a predetermined concentration was applied to ten middle instar larvae of webbing clothes moth (Tineola bisselliella) at the central part of the back so as to give the active ingredient in a dose of 3 µg / insect. A wool muslin fabric (2 cm × 2 cm in size) was given to the webbing clothes moths as the food. After 7 days, the mortality and the degree of damage of the wool muslin fabric by the moths were examined (two replicate).

The subject of data set [9] is common mosquitoes (Culex pipiens pallens). Put plainly: Biological test 8: mosquito-coil in glass chamber, knock-down. The format is in vivo. The conditions noted are these: 1.0 g of 0.3 % mosquito-coil, 0.34 m^3 chamber, after 15 minutes. Here is the method:
Mosquito-coil containing the present compound in an amount of 0.3 % was prepared according to the formulation example 10 for the present compounds. Ten female common mosquitoes (Culex pipiens pallens) were left in a glass chamber (70 cm × 70 cm × 70 cm : 0.34 m^3) and 1.0 g of 0.3 % mosquito-coil having both ends lit was placed in the glass chamber. After 15 minutes, the rate of knocked-down mosquitoes was examined.

Data set [10] has as its system houseflies (Musca domestica). Kind of data set: Biological test 10: vapour exposure over treated aluminum plate, houseflies. The format is in vivo. The conditions noted are these: 0.64 ml of 0.05 (w/v) % acetone solution, no direct contact, 25 °C for 120 minutes, after 24 hours. The protocol: (§1) After 0.64 ml of a 0.05 (w/v) % acetone solution of the present compounds was dropped into an aluminum plate (bottom diameter : 7 cm), acetone was air-dried. Ten female houseflies (Musca domestica) were left in a polyethylene cup (diameter : 9 cm; depth : 4.5 cm) and the cup was sealed with a 16-mesh nylon net to prevent direct contact of the houseflies with the compound. The cup was placed upside down on the aluminum plate at 25 °C for 120 minutes. The cup was then removed from the aluminum plate, and water and feed were given to the houseflies. After 24 hours, the percent moribund was examined (two replicate).

The test system of data set [11] is houseflies (Musca domestica). Kind of data set: Biological test 9: topical application of acetone solution to houseflies. It counts as in vivo. The conditions noted are these: 5 µg / one housefly, after 24 hours. Here is the method:
After 24 hours, the percent moribund was examined (two replicate).

The subject of data set [12] is webbing clothes moth (Tineola bisselliella). Put plainly: Biological test 14: persistence of treated filter paper in cardboard box, webbing clothes moth larvae. Details: key to degree of damage: -: no damage; +: slight damage; ++: heavy damage; +++: severe damage. To be noted: 36 mg on filter paper. It counts as in vivo. Here is the method:
A filter paper (3.2 cm × 3.2 cm in size) treated with 36 mg of each of the present compounds and two wool muslin fabrics (25 cm × 25 cm in size) were hung down at the upper part of a corrugated cardboard box (29 cm × 29 cm × 29 cm in size). After standing at 25 °C and a humidity of 60 % for 1 week, two tea-strainer balls holding 7 to 10 middle instar larvae of webbing clothes moth (Tineola bisselliella) and one piece of wool muslin cloth (2 cm × 2 cm in size) were hung down at the upper part of the box. The box was closed with a lid. After one week, the box was opened, and the percent moribund and the degree of damage of the wool muslin cloth by the moths were examined. The same tests was repeated 2 weeks, 3 weeks and 5 weeks after the treatment to examine the persistance of the present compound. The degree of damage was represented by "-" in no damage, " + " in slight damage, " ++ " in heavy damage and "+++ " in severe damage.

The test system of data set [13] is German cockroaches (Blattella germanica). Kind of data set: Biological test 5: treated filter paper with sucrose bait, cockroaches low sensitive to pyrethroids. To be noted: Blattella germanica, 144 h.
Data set [14] deals with common mosquitoes (Culex pipiens pallens). Put plainly: Biological test 11: vapour exposure over treated aluminum plate, mosquitoes. The format is in vivo. To be noted: Culex pipiens, 24 h. The protocol:
as §1, with “common mosquitoes (Culex pipiens pallens)” for “houseflies (Musca domestica)”, “mosquitoes” for “houseflies”, “mosquitoes.” for “houseflies.”, “mortality” for “percent moribund”

On to `Cc1ccc(COC(=O)[C@@H]2[C@H](/C=C(\Cl)C(F)(F)F)C2(C)C)o1` (racemic) [present compound (1), 5-methyl-2-furfuryl (1RS,cis)-3-(Z-2-chloro-3,3,3-trifluoroprop-1-enyl)-2,2-dimethylcyclopropanecarboxylate], for which the results for the “rate of knocked-down mosquitoes” value in [1] and in [9] were at least 90% and 100%, respectively. In addition, the mortality at 500 µg/mL in data set [2] and in [14] was 100% in each case. Further, the mortality at 50 ppm in [3] was determined as 100%. The mortality at 0.1 mg in data set [4] (Tineola bisselliella, 168 h) came to 100%. Besides, the “degree of damage of the wool muslin fabric” value in data set [4] and in [8] was “no damage” each time. The same molecule showed a mortality at 3.5 ppm in data set [5] of at least 90%. In [6], the LD50 is given as 300 mg/kg. Moreover, the mortality at 500 ppm in [7] is at least 90%; in [13], 100%. Also, the mortality at 0.003 mg in data set [8] (Tineola bisselliella, 168 h) is 100%. For the same molecule, the percent moribund in data set [10], in [11], in data set [12] (After 1 week), in data set [12] (After 2 weeks), in [12] (After 3 weeks) and in [12] (After 5 weeks) was 100% each time. The degree of damage entry in data set [12] (After 1 week), in data set [12] (After 2 weeks), in data set [12] (After 3 weeks) and in [12] (After 5 weeks) was “-” throughout.
Turning to `C#CCc1ccc(COC(=O)C2C(/C=C(\Cl)C(F)(F)F)C2(C)C)o1` (centres unmarked) [C, reference compound], the LD50 result in data set [6] was “less than 100 mg/kg”. Also, the degree of damage result in data set [12] (After 1 week), in [12] (After 2 weeks), in data set [12] (After 3 weeks) and in data set [12] (After 5 weeks) was “+++” each time. Further, the percent moribund in data set [12] (After 1 week) is 7%; in data set [12] (After 2 weeks) it was 63%; in data set [12] (After 3 weeks), 20%; in data set [12] (After 5 weeks), 37%.

The record behind these values is EP0989125B1, “Pesticidal furylmethyl cyclopropanecarboxylates” (Sumitomo Chemical Company, Limited, priority 1998, dated 2000).
